# Results published in patent US20250154105A1, “POLYCYCLIC COMPOUND AND USE THEREOF” (TYK MEDICINES, INC., priority 2021, published 2025).
# Assays:
# YAP-TEAD = YAP-TEAD inhibitor activity by Nano luciferase method (8xGTiiC-nLuc reporter in 293T cells); type: cell-based; details: Homo sapiens, HEK-293T, 48 hours incubation, read-out: Nano-luciferase detection (IC50)
# Procedure, shortened: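 293T cells transiently transfected with pGL3B-8xGTiiC-nLuc-CMV-fLuc, seeded 2000 cells/well, then treated 48 h at 37 °C with compounds in 1:3.16 dilution series (top 10,000 nM). Nano luciferase signal read after cell lysis; IC50 from percent of 0 nM control.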
# [1] = tested on: human pleural mesothelioma cells NCI-H226; test: Cell anti-proliferation experiment (CCK8), NCI-H226; type: cell-based
# Procedure, shortened: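 Viability was measured by CCK-8 (3 h, A450) after 3-day treatment with 0.15–333.33 nM compound in 0.1% DMSO medium. Curve-fitted IC50 was based on viability normalised to no-drug and cell-free controls.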
Compound,IC50 (YAP-TEAD) [nM],IC50 [1] [nM]
CNS(=O)(=O)c1ccc2c(c1)c1nn(C)cc1c(=O)n2-c1cccc(C)c1 [Example T-79],≤ 1000,1000 to 5000
CNS(=O)(=O)c1ccc2c(c1)c1nn(C)cc1c(=O)n2-c1ccccc1 [Example T-61],≤ 1000,≤ 1000
C[C@H](NC(=O)c1ccc2c(c1)c1cscc1c(=O)n2-c1ccc(C(F)(F)F)nc1)c1ccccn1 [Example T-264],≤ 1000,≤ 1000
CC(C)NC(=O)c1ccc2c(c1)cc(Br)c(=O)n2-c1ccc(C(F)(F)F)cc1 [Example T-50],1000 to 5000,1000 to 5000
COc1cccnc1[C@@H](C)NC(=O)c1ccc2c(c1)c1nn(C)cc1c(=O)n2-c1ccc(C(F)(F)F)cc1 [Example T-135],1000 to 5000,1000 to 5000
Cn1cc2c(=O)n(-c3ccc(C(F)(F)F)cc3)c3ccc(C(=O)Nc4c[nH]cn4)cc3c2n1 [Example T-121],1000 to 5000,1000 to 5000
Cn1cc2c(=O)n(-c3ccc(C(F)(F)F)cc3)c3ccc(NC(=O)/C=C/CN4CCCCC4)cc3c2n1 [Example T-177],≤ 1000,≤ 1000
C[C@H](NC(=O)c1ccc2c(c1)c1nn(C)cc1c(=O)n2-c1ccc(C(F)(F)F)cc1)c1ccc(C(F)(F)F)cn1 [Example T-123],1000 to 5000,1000 to 5000
CNS(=O)(=O)c1ccc2c(c1)c1nn(C)cc1c(=O)n2-c1cccc(F)c1 [Example T-72],≤ 1000,≤ 1000
Cn1cc2c(=O)n(-c3ccc(C(F)(F)F)cc3)c3ccc(NS(C)(=O)=O)cc3c2n1 [Example T-190],≤ 1000,≤ 1000
C=C(F)C(=O)Nc1ccc2c(c1)c1nn(C)cc1c(=O)n2-c1ccc(C(F)(F)F)cc1 [Example T-235],≤ 1000,≤ 1000
C[C@@H](NC(=O)c1ccc2c(c1)c1nn(C)cc1c(=O)n2-c1ccc(C(F)(F)F)cc1)c1ncccc1F [Example T-125],1000 to 5000,1000 to 5000
C[C@@H](NC(=O)c1ccc2c(c1)c1nn(C)cc1c(=O)n2-c1ccc(C(F)(F)F)cc1)c1ccc(F)cn1 [Example T-127],1000 to 5000,1000 to 5000

# Next, values leading:
IC50 (YAP-TEAD) [nM],IC50 [1] [nM],Compound
≤ 1000,≤ 1000,Cc1scc2c(=O)n(-c3ccc(C(F)(F)F)cc3)c3ccc(C(=O)N[C@@H](C)c4ccccn4)cc3c12 [Example T-296]
≤ 1000,≤ 1000,C[C@@H]1CCc2c1c(=O)n(-c1ccc(C(F)(F)F)cc1)c1ccc(C(=O)N[C@@H](C)c3ccccn3)cc21 [Example T-446]
≤ 1000,≤ 1000,C[C@H](NC(=O)c1cnc2c(c1)c1cocc1c(=O)n2-c1ccc(C(F)(F)F)cc1)c1ccccn1 [Example T-374]
≤ 1000,≤ 1000,CNS(=O)(=O)c1ccc2c(c1)c1c(c(=O)n2-c2ccc(C(F)(F)F)cc2)CCC1 [Example T-427]
≤ 1000,≤ 1000,C[C@H](NC(=O)c1ccc2c(c1)c1nocc1c(=O)n2-c1ccc(C(F)(F)F)cc1)c1ccccn1 [Example T-395]
≤ 1000,≤ 1000,C[C@H](NC(=O)c1ccc2c(c1)c1c(c(=O)n2-c2ccc(C(F)(F)F)cc2)C(F)(F)CC1)c1ccccn1 [Example T-295]
≤ 1000,≤ 1000,C[C@H](NC(=O)c1ccc2c(c1)c1cccc(C#N)c1c(=O)n2-c1ccc(C(F)(F)F)cc1)c1ccccn1 [Example T-321]
≤ 1000,≤ 1000,C[C@H](NC(=O)c1ccc2c(c1)-c1nn(C)cc1[C@H](C)N2c1ccc(C(F)(F)F)cc1)c1cccc(N)n1 [Example T-327]
≤ 1000,≤ 1000,C[C@H](NC(=O)c1ccc2c(c1)c1nscc1c(=O)n2-c1ccc(C(F)(F)F)cc1)c1ccccn1 [Example T-329]
≤ 1000,≤ 1000,C=CC(=O)Nc1ccc2c(c1)c(C)cc(=O)n2-c1ccc(C(F)(F)F)cc1 [Example T-280]
≤ 1000,≤ 1000,Cc1c(Br)c(=O)n(-c2ccc(C(F)(F)F)cc2)c2ccc(C(=O)N[C@@H](C)c3ccccn3)cc12 [Example T-278]
